Test system: cerebral ischemia (infarcts) in patients with aneurysmal subarachnoid hemorrhage
Assay: clinical study of Tempol on prevention of cerebral ischemia during treatment of aneurysms (MRI-DWI infarct count and size)
Format: in vivo
Conditions: human patients, 1-300 mg/kg orally before and after surgical or endovascular treatment; MRI-DWI 1-3 days and 6 weeks post-treatment
Method: This example describes a clinical study to determine the effect of Tempol on the prevention of cerebral ischemia during treatment of aneurysms in human patients that have bled. Patients, having suffered aneurysmal subarachnoid hemorrhaging, undergo magnetic resonance imaging (MRI-DWI) to count the number of infarcts and measure their size. Either 1-300 mg/kg of Tempol or a placebo are orally administered to the human patients. Patients undergo treatment for subarachnoid hemorrhaging (e.g., surgical or endovascular). After surgery, 1-300 mg/kg of Tempol or a placebo are orally administered to the patients. 1-3 days post-treatment, follow up MRI-DWI is used to count and measure the size of infarcts. The number and size of the infarcts is also measured 6 weeks post-treatment using MRI-DWI.

CC1(C)CC(O)CC(C)(C)N1[O] [Tempol, 4-hydroxy-2,2,6,6-tetramethylpiperidine-1-oxyl]
number of infarcts (MRI-DWI) versus placebo: fewer
size of infarcts (MRI-DWI) versus placebo: smaller sized

— patent publication US20100240700A1, “PROPHYLACTIC PRETREATMENT WITH ANTIOXIDANTS” (MITOS PHARMACEUTICALS, INC., priority 2003, published 2010)
